This note sets out measurements from patent US4540688A, “β-Lactam antibiotics” (Beecham Group p.l.c., priority 1982, dated 1985).

Assay type in all cases: cell-based
In one experiment the test system is E. coli JT4. The experiment is described as follows: Antibacterial in vitro activity (MIC), E. coli JT4. The note with it: Escherichia coli.
The test system of a further experiment is S. pyogenes CN10. The experiment is described as follows: Antibacterial in vitro activity (MIC), S. pyogenes CN10. The note with it: Streptococcus pyogenes.
A further experiment has as its system P. mirabilis C977. The experiment is described as follows: Antibacterial in vitro activity (MIC), P. mirabilis C977. To be noted: Proteus mirabilis.
The subject of the next experiment is E. cloacae N1. The experiment in a line: Antibacterial in vitro activity (MIC), E. cloacae N1. To be noted: Enterobacter cloacae.
Another experiment relates to K. aerogenes A. The experiment in a line: Antibacterial in vitro activity (MIC), K. aerogenes A. The note with it: Klebsiella aerogenes.
A further experiment concerns E. coli NCTC 10418. The experiment is described as follows: Antibacterial in vitro activity (MIC), E. coli NCTC 10418. To be noted: Escherichia coli, NCTC10418.
For the next experiment, the system named is E. coli ESS. The experiment in a line: Antibacterial in vitro activity (MIC), E. coli ESS. The note with it: Escherichia coli.
For the next experiment, the system named is S. marcesens US32. The experiment is described as follows: Antibacterial in vitro activity (MIC), S. marcesens US32.
The next experiment relates to N. catarrhalis 1502. The experiment is described as follows: Antibacterial in vitro activity (MIC), N. catarrhalis 1502.
In another experiment the test system is E. coli JT425. The experiment is described as follows: Antibacterial in vitro activity (MIC), E. coli JT425. The note with it: Escherichia coli.
For experiment [1], the system named is Ps. aeruginosa NCTC 10662. The experiment in a line: Antibacterial in vitro activity (MIC), Ps. aeruginosa NCTC 10662. To be noted: Pseudomonas aeruginosa.
The next experiment deals with Ps. aeruginosa Dalgleish. The experiment is described as follows: Antibacterial in vitro activity (MIC), Ps. aeruginosa Dalgleish. The note with it: Pseudomonas aeruginosa; Ps. aeruginosa Dalgleish 10^-2.
In the next experiment the test system is P. rettgeri. The experiment in a line: Antibacterial in vitro activity (MIC), P. rettgeri. The note with it: Providencia rettgeri.

Structures are written as SMILES.

In general, MIC refers to the smallest concentration in the dilution series that meets the test's criterion for growth inhibition. Read a low MIC as a more susceptible organism.

For `CCN1CCN(C(=O)N[C@@H](C(=O)N[C@@H]2C(=O)N3[C@@H](C(=O)O)CS[C@H]23)c2ccc(O)c(O)c2)C(=O)C1=O` [Example 3, Sodium 6,β[D-2-(4-ethyl-2,3-dioxopiperazine-1-carbonylamino)-2-(3,4-dihydroxyphenyl)]acetamidobisnorpenicillanate], the MIC worked out at 1000 µg/mL in the experiment with E. coli JT4; 500 µg/mL against S. pyogenes CN10; 100 µg/mL against P. mirabilis C977; 500 µg/mL against E. cloacae N1; 50 µg/mL against K. aerogenes A; 20 µg/mL in the experiment with E. coli NCTC 10418. The MIC against E. coli ESS came to 20 µg/mL; against S. marcesens US32, 200 µg/mL; in the experiment with N. catarrhalis 1502, 20 µg/mL; against E. coli JT425, 50 µg/mL; in [1] (NCTC10662, Ps. aeruginosa NCTC 10662) it was 1000 µg/mL; in [1] (NCTC10662, Ps. aeruginosa NCTC 10662 10^-2), 100 µg/mL. The MIC was 2500 µg/mL in the experiment on Ps. aeruginosa Dalgleish and 200 µg/mL against P. rettgeri.
